What was measured:
[1] = tested on: U-138 MG cells; test: Apoptosis, caspase-3/7 and 7-AAD flow cytometry, U-138 MG; assay type: cell-based, human; conditions: 48 h
Experimental: (§1) Based on the MTT test, the lichen secondary metabolite concentrations allowing the survival of more than 70% of cells were chosen for the subsequent experiments. The compounds were added as follows: A-172 cells—atranorin 25 µM, caperatic acid 50 µM, physodic acid 25 µM, squamatic acid 25 µM, salazinic acid 50 µM, and lecanoric acid 100 µM; T98G cells—atranorin 50 µM, caperatic acid 100 µM, physodic acid 25 µM, squamatic acid 50 µM, salazinic acid 100 µM, and lecanoric acid 100 µM; U-138 MG cells—atranorin 25 µM, caperatic acid 50 µM, physodic acid 25 µM, squamatic acid 50 µM, salazinic acid 50 µM, and lecanoric acid 100 µM. As far as the TMZ treatment is concerned, it was added in the concentrations depending on the MGMT expression and methylation status, i.e., TMZ 30 µM was added to the A-172 cell line, and TMZ 100 µM was added to both the T98G and U-138 MG cell lines. In the case of the 2D culture, the cells were treated with the compounds 24 h after seeding, whereas, in regard to 3D culture, 5 days were needed to form spheroids. All subsequent analyses were performed 48 h after treatment.
The fluorescent-based analysis of apoptosis using Muse® Caspase-3/7 Kit was performed in order to analyze the percentage of live, early, and late apoptotic; total apoptotic; and dead cells in A-172, T98G, and U-138 MG GBM cells treated with lichen secondary metabolites. The principle of the method relies on the measurement of the activity of executioner caspases, i.e., caspase-3 and caspase-7, as well as analyzing the integrity of the cell membrane with the use of a dead cell marker 7-AAD. Cell seeding and treatment followed the same protocol as for cell cycle or ROS generation analysis, while the subsequent procedures were performed according to the manufacturer’s recommendations.

[2] = tested on: Wnt/β-catenin pathway target genes in T98G cells; test: qPCR of β-catenin and Wnt target genes, T98G; assay type: cell-based, human; conditions: 48 h
Experimental: as §1
The Universal RNA Purification Kit (EURx, Gdańsk, Poland) was used for total RNA isolation from the A-172, T98G, and U-138 MG cells, and the Revert-Aid First Strand cDNA Synthesis kit (Fermentas, Burlington, ON, Canada) was chosen for cDNA synthesis. Quantitative real-time PCR (qPCR) was performed using Hot FIREPol EvaGreen qPCR Mix Plus (Solis Biodyne, Tartu, Estonia) and LightCycler 96 (Roche Diagnostics GmbH, Mannheim, Germany). Primer sequences were previously published and their synthesis was performed at the Institute of Biochemistry and Biophysics, Warsaw, Poland. The protocol started with 15 min enzyme activation at 95 °C, followed by 40 cycles of 95 °C for 15 s; appropriate annealing temperature for 20 s; 72 °C for 40 s and the final elongation at 72 °C for 5 min. Melting curve analysis was used to confirm the generation of a single amplification product. TATA box-binding protein (TBP), a component of the DNA-binding protein complex TFIID, served as the endogenous RNA control. The results were expressed as N-fold differences in the gene expression relative to the TBP gene. The ΔΔCt method was used for fold-change calculation. All samples were analyzed in triplicate, and the reaction was repeated at least twice.

[3] = tested on: HCT-116 cells; set-up: method as in PMID 35190352; conditions: 30 µg/mL, ref [30]; cited from earlier work
[4] = tested on: HCT-116 cells; set-up: method as in PMID 35190352; conditions: HCT-116, ref [30]; cited from earlier work
[5] = tested on: HCT-116 cells; set-up: method as in PMID 35190352; conditions: atranorin at 30 µg/mL, ref [30]; cited from earlier work
[6] = tested on: T98G cells; test: MTT test, T98G; assay type: cell-based; conditions: Homo sapiens, 48 h, three independent experiments, read-out: IC50 [uM] ± SEM T98G
Experimental: Three human GBM cell lines were used in this study, i.e., A-172 (ATCC-CRL-1620), T98G (92090213), and U-138 MG (ATCC-HTB-16). The A-172 and U-138 MG cell lines were purchased from the American Type Culture Collection (ATCC), whereas the T98G cell line was obtained from the European Collection of Authenticated Cell Cultures (ECACC). It has been confirmed by us that O^6-methylguanine-DNA methyltransferase (MGMT), the key factor determining the response to alkylating agents, such as TMZ, is expressed in T98G and U-138 MG cells, whereas in A-172 the expression of MGMT is silenced by promoter methylation. Therefore, the cell lines differ in terms of TMZ sensitivity; A-172 is regarded as TMZ sensitive, whereas T98G and U-138 MG are TMZ resistant.
The cells were grown as monolayers (2D cell culture) in the recommended media: A-172 were grown in the ATCC-formulated DMEM (Merck, Darmstadt, Germany), whereas T98G and U-138 MG cell lines were grown in the ATCC-formulated EMEM (Merck, Darmstadt, Germany). These media were supplemented with FBS (Biowest, Nuaillé, France) to a final concentration of 10%, as well as antibiotics (penicillin and streptomycin) (Merck, Darmstadt, Germany) to the final concentrations of 1%. For the experiments, the amount of FBS was reduced to 5%. The medium for the T98G cell line was supplemented with 2 mM glutamine, 1% nonessential amino acids, and 1% sodium pyruvate (all purchased from Merck, Darmstadt, Germany).
In order to analyze the cytotoxicity of the analyzed lichen secondary metabolites, as well as to establish the appropriate concentrations for further analysis (allowing the survival of >70% of cells), we performed the MTT test. The procedure of the test was described previously. Briefly, the cells (10,000 cells per well) were seeded on the 96-well plates and left for 24 h. Afterwards, the analyzed compounds in the concentration range of 1 µM up to 100 µM were added to the cells and left for 48 h incubation. DMSO treated cells served as control. After the above-mentioned time, the cells were washed twice with warm PBS and incubated for 3 h in the presence of a fresh medium containing MTT salt (0.5 mg/mL). Then the formazan crystals were dissolved in acidic isopropanol. The absorbance was measured at 570 and 690 nm on a Tecan Infinite M200 microplate reader (Grödig, Austria). The experiments were repeated at least three times.

[7] = tested on: HeLa cells; set-up: method as in PMID 35190352; conditions: ref [30]; cited from earlier work
[8] = mRNA vs DMSO control, single agent

Row | Compound | effect on apoptosis [1] | c-MYC expression [2, 8] | viability of HCT-116 cells [3] | cell cycle distribution [4] | apoptosis induction [5] | IC50 [6] [µM] | NEDD9 expression [2, 8] | number of late apoptotic cells vs control ([1]; 100 µM) | percentage of early apoptotic cells vs control ([1]; 100 µM) | Axin2 expression ([2]; co-treatment with TMZ 100 µM) | CCND1 expression ([2]; co-treatment with TMZ 100 µM) | c-MYC expression ([2]; co-treatment with TMZ 100 µM) | β-catenin (CTNNB1) expression ([2]; co-treatment with TMZ 100 µM) | cell cycle distribution [7] | number of the six analyzed genes downregulated ([2]; co-treatment with TMZ 100 µM) | CCND1 expression [2, 8] | BIRC5 expression ([2]; mRNA vs DMSO control, single agent, TMZ 100 µM) | NEDD9 expression ([2]; co-treatment with TMZ 100 µM)
1 | COC(=O)c1c(C)cc(OC(=O)c2c(C)cc(O)c(C=O)c2O)c(C)c1O [Atranorin] | anti-apoptotic effect | trend towards downregulation, but with no statistical significance | significantly reduced | no significant effect | significantly induced apoptosis | 98.6 ± 7.8 |  |  |  |  |  |  |  |  |  |  |  | 
2 | CCCCCCCCCCCCCCC(C(=O)O)C(O)(CC(=O)OC)C(=O)O (centres unmarked) [Caperatic acid] | anti-apoptotic effect |  |  |  |  | > 100 | downregulated |  |  |  |  |  |  |  |  |  |  | 
3 | Cc1cc(OC(=O)c2c(C)cc(O)cc2O)cc(O)c1C(=O)O [Lecanoric acid] |  |  | significantly reduced | cell cycle arrest in the G2 phase | did not induce apoptosis | > 100 |  | increased | decreased | downregulated | downregulated | downregulated | downregulated | cell cycle arrest in the G2 phase |  |  |  | 
4 | Cc1cc(O)c(C=O)c2c1C(=O)Oc1c(CO)c(O)c3c(c1O2)C(O)OC3=O (centres unmarked) [Salazinic acid] |  | upregulated |  |  |  |  |  |  |  | trend toward downregulation |  |  |  |  | five out of six | significantly upregulated | downregulated | 
5 | COc1cc(C)c(C(=O)Oc2cc(C)c(C(=O)O)c(O)c2C)c(O)c1C(=O)O [Squamatic acid] |  | trend towards downregulation, but with no statistical significance |  |  |  | > 100 | downregulation |  |  |  | downregulated | downregulated | downregulated |  |  |  |  | downregulated

Reference: article PMC8997913, “Lichen Secondary Metabolites Inhibit the Wnt/β-Catenin Pathway in Glioblastoma Cells and Improve the Anticancer Effects of Temozolomide” (Cells, 2022)
